Measurements reported in US20100210555A1, “USE OF A LAMININ PEPTIDE AS A THERAPEUTIC AGENT” (priority 2007, published 2010).
Where no end group is shown, it is not given here.

What was measured:
HCMV strain AD169 = assay: HCMV plaque formation assay in MRC-5 cells; conditions: for inhibition of HCMV plaque formation as compared to the virus control: 10 micrograms per ml, 7-10 days
HUVEC = assay: Endothelial tube formation assay; format: cell-based, human; conditions: 10 micrograms per ml, 20 hours, combination peptide 1:peptide 2 0.95 mole: 1.05 mole
Description: Positive control was vehicle only.

spleen cells = assay: Th1/Th2 cytokine profiling assay; format: cell-based, Balb/c mice; conditions: 10 micrograms per ml; Ovalbumin restimulation, 72 hours
[1] = system: Primary Human endothelial cells (HUVEC); assay: Endothelial cell migration assay; format: cell-based; conditions: 10 micrograms per ml, 22 hours, combination peptide 1:peptide 2 0.95 mole: 1.05 mole
[2] = system: hepatitis B virus (HBV) ayw strain; assay: HBV experimental assay system (HepG2-2.2.15, TaqMan PCR of secreted HBV DNA); format: cell-based; conditions: 10 micrograms per ml; HepG2-2.2.15 cells, six days
Description: HepG2-2.2.15 is a stable cell line containing the hepatitis B virus (HBV) ayw strain genome (ATCC Cat. No. CRL-11997). Antiviral compounds blocking any late step of viral replication such as transcription, translation, pregenome encapsidation, reverse transcription, particle assembly and release can be identified and characterized using this cell line. In this assay, an active compound will reduce the production of secreted HBV from cells, measured by utilizing real time quantitative PCR (TaqMan) assay to directly and accurately measure HBV DNA copies.
HepG2-2.2.15 cells were plated in 96-well microtiter plates. After 16-24 hours the confluent monolayer of HepG2-2.2.15 cells was washed and the medium was replaced with complete medium containing test peptides—10 micrograms per ml—in duplicate. […] Six days following the initial administration of the peptides, the cell culture supernatants was collected, treated with pronase and DNAse and then used in a real-time quantitative TaqMan PCR assay. The PCR-amplified HBV DNA was detected in real-time by monitoring increases in fluorescence signals that result from the exonucleolytic degradation of a quenched fluorescence probe molecule that hybridizes to the mplified HBV DNA. […] Antiviral activity was calculated from the reduction in HBV DNA levels (% virus control). […]

## Nc1nc(O)c2ncn(COC(CO)CO)c2n1 [Ganciclovir, reference compound]
HCMV strain AD169; positive control, HCMV AD169
  antiviral activity of positive control compound (HCMV): expected levels of antiviral activity

## Cys-Ser-Arg-Ala-Arg-Lys-Gln-Ala-Ala-Ser-Ile-Lys-Val-Ala-Val-Ser-Ala-Asp-Arg-OH (CSRARKQAASIKVAVSADR-OH) [peptide 1]
HUVEC
  inhibition of the tube formation of endothelial cells: 30%
Spleen cells
  IFNγ spleen cells; TH1 response (% of control): 88.8 % of control
  IL-2 spleen cells (% of control): 66.8 % of control
  IL-4 spleen cells; TH2 response (% of control): 148.8 % of control
  IL-5 spleen cells; TH2 response (% of control): 64.5 % of control
  TNF-a spleen cells; TH1 response (% of control): 101.0 % of control
HCMV strain AD169
  inhibition of HCMV plaque formation as compared to the virus control: did not inhibit
[1]
  inhibition of the migration of human endothelial cells: 32%
[2]
  inhibition of HBV replication as compared to the virus control infection: 22.1%

## Pro-His-Pro-Phe-His-Leu-Phe-Val-Tyr-OH (PHPFHLFVY-OH) [peptide 2]
HUVEC
  inhibition of the tube formation of endothelial cells: 27%
Spleen cells
  IFNγ spleen cells; TH1 response (% of control): 76.6 % of control
  IL-2 spleen cells (% of control): 70.7 % of control
  IL-4 spleen cells; TH2 response (% of control): 113.5 % of control
  IL-5 spleen cells; TH2 response (% of control): 57.6 % of control
  TNF-a spleen cells; TH1 response (% of control): 111.8 % of control
HCMV strain AD169
  inhibition of HCMV plaque formation as compared to the virus control: did not inhibit
[1]
  inhibition of the migration of human endothelial cells: 33%
[2]
  inhibition of HBV replication as compared to the virus control infection: no effect
